# Experimental data from patent US20250235499A1, “ANTI-OVARIAN CANCER PHARMACEUTICAL COMPOSITION AND ACTION TARGET THEREOF” (Zhejiang Chinese Medical University, priority 2024, published 2025).
# How the values were obtained:
# Hey ovarian cancer cell = assay: Tumor bearing nude mouse model (tumor volume, tumor inhibition rate, body weight); format: in vivo, BALB/c nude mice; conditions: intraperitoneal, 15 days; DDP 3 mg/kg, CA 80 mg/kg, BDMC 5 mg/kg; compared to the Control group, P<0.01
# Method: Newly housed BALB/c nude mice were placed in an SPF grade feeding room laminar flow rack for adaptive feeding for one week, and the experimental animal status was adjusted. A Hey ovarian cancer cell was cultivated to the logarithmic growth stage, and the original culture medium was discarded. The Hey ovarian cancer cell was washed with PBS buffer, added with 0.1% trypsin digestion for digestion, added with the corresponding culture medium to terminate digestion, centrifuged at 1000 rpm for 3 minutes, and added with PBS buffer to prepare a cell suspension. The cell was counted using a hemocytometer, and the cell concentration was quantified to 5×10^7 cells/mL. After grasping and fixing the nude mouse with the left hand, and the skin at a needle inserting site on the right forelimb axilla of the nude mouse was disinfected with a 75% alcohol cotton ball. A disposable 1 mL syringe was used to inject approximately 100 μL of cell suspension subcutaneously into the posterior axilla of the right forelimb in an oblique stabbing inserting needle mode, so that each nude mouse was injected with approximately 5×10^6 cells. After vaccination, the needle inserting site was gently pressed with a cotton ball to prevent the cell suspension from leaking from a needle hole. The growth status of tumors at the vaccination site of nude mice was observed daily. After about one week, if the tumors at the vaccination site were compacted and appeared light red in color, it could be considered as successful tumor growth. At this time, the nude mice were randomly divided into 5 groups, a Control group intraperitoneally injected with physiological saline for 1 day each time; a DDP group intraperitoneally injected with cisplatin, 3 mg/kg, 3 d/time; a CA group intraperitoneally injected with CA, 80 mg/kg, 1 d/time; a BDMC group intraperitoneally injected with BDMC, 5 mg/kg, 1 d/time; a CA+BDMC group intraperitoneally injected with CA 80 mg/kg+BDMC 5 mg/kg, 1 d/time, 8 animals per group. A tumor length (L) and a […] were measured with a vernier caliper every 3 days to calculate a tumor volume. After 15 days of administration, nude mice were euthanized by dislocation of cervical vertebra, and tumor tissue was dissected. The tumor weight was weighed to calculate the tumor inhibition rate. The tumor tissue was stored in two batches at −80° C. and fixed with 4% paraformaldehyde.
# [1] = tested on: MCM2, CDK4, Cyclin D1, P21; assay: Western Blot of tumor body cyclin in tumor bearing nude mice; format: in vivo, BALB/c nude mice; conditions: nude mouse tumor body, compared to the Control group
# Description: The expression of nude mice tumor body cyclin and EMT related proteins in tumor bearing nude mice after intervention with DDP, CA, BDMC, and combined administration was shown in FIG. 29. In the figure, 1 represented the Control group; 2 represented the DDP group; 3 represented the CA group; 4 represented the BDMC group; and 5 represented the CA+BDMC group.
smiles,measurement,setting,value
"N.N.[Cl][Pt][Cl] [DDP, cisplatin, reference compound]",tumor inhibition rate,Hey ovarian cancer cell,significantly increased
same,tumor volume size,Hey ovarian cancer cell,significantly reduced
same,expression of CDK4 protein (Western Blot),[1],significantly decreased
